From patent publication US20110091473A1, “NOVEL ANTIBODY THERAPIES” (GENMAB A/S, priority 2007, published 2011)

T1: human CD20 (human, UniProt P11836 1-297)
T1 sequence (looked up): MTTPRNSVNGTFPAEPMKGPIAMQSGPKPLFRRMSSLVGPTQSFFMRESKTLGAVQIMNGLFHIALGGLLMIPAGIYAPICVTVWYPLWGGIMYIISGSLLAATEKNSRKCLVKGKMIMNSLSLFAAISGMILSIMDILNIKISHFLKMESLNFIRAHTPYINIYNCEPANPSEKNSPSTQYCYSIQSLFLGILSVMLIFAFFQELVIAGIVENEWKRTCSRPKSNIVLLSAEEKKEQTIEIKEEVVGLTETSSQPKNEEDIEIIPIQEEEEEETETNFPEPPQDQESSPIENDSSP


How the values were obtained:
[1] = test system: CD20 on RAJI-CD20high cells; experiment: Flow cytometry binding of FITC-conjugated B9E9 to RAJI-CD20high cells; design: species or system human; conditions: Berberine chloride 24 hours; Fillipin III 30 minutes
Method: To deplete cholesterol from the cell membrane, methyl-beta-cyclodextrin (MβCD, Sigma, Zwijndrecht, The Netherlands) was added in varying concentrations to Daudi cells and RAJI-CD20high cells and incubated for 30 minutes at 37° C. under gentle shaking conditions. After incubation the cells were washed twice in PBS and resuspended in test medium to a concentration of 2×10^6 viable cells/ml. MβCD-treated Daudi cells (1×10^5) were incubated with a saturating concentration of FITC-conjugated human anti-CD20 mAb 2F2 or the anti-CD20 mAb B9E9 (Beckman Coulter Inc., Fullerton, Calif.) for 30 minutes at 4° C. After washing twice with FACS buffer (PBS, 0.1% Bovine Serum Albumine, 0.02% Sodium Azide), cells were analyzed on a FACS Calibur (Becton Dickinson, Breda, The Netherlands). […] Binding is expressed as mean fluorescence intensity. […]
To determine the effect of adding cholesterol on CD20 mAb binding, all cell lines (1×10^5) were incubated with a saturating concentration of B9E9 for 30 minutes at 4° C. After washing twice with FACS buffer (PBS, 0.1% Bovine Serum Albumine, 0.02% Sodium Azide), the cells were analyzed on a FACS Calibur (Becton Dickinson, Breda, The Netherlands).
Cholesterol was depleted from the cell membrane of various B cells using varying concentrations of lovastatin (as described in Example 3) and CD20 mAb binding was determined. […]

RAJI-CD20high cells = experiment: Rituximab-mediated CDC of RAJI-CD20high cells, MTT assay; format: cell-based, human; conditions: Berberine chloride 24 hours or Fillipin III 30 minutes; 10 μg/ml rituximab, 10% serum
Text: Statins are competitive inhibitors of 3-hydroxy-3-methylglutaryl-coenzyme A reductase (HMG-CoAR). HMG-CoAR is a rate-limiting enzyme of the mevalonate pathway essential for the synthesis of isoprenoid compounds including cholesterol (McTaggart S J (2006) Isoprenylated proteins. Cell Mol Life Sci 63:255-267). By inhibiting HMG-CoAR, statins can lower the cholesterol blood level and extract cholesterol from the cell membrane. To determine the effect of statin-mediated cholesterol depletion on immunotherapy RAJI-CD20high cells were cultured with a concentration range of lovastatin or diluent for 48 hours.
Cell viability was measured in a MTT assay in which 3-(4,5-dimethylthiazol-2-yl)-2,5-diphenyltetrazolium bromide (MTT) solution (5 mg/ml, Roche, Diagnostics, Almere, The Netherlands) was added to each well (flat-bottom microtiter plates; Nunc, Rochester, N.Y.). The reaction was stopped after 4 hours of incubation at 37° C. by the addition of 100 μl of 20% SDS (Roche Diagnostics, Almere, The Netherlands). After overnight incubation at 37° C. the absorbance of the samples was measured at 550-525 nm using an Elisa reader (EL808x, Biotek instruments, Highland park, Vt., USA). Cytotoxicity was expressed as a relative viability of the rituximab-mediated CDC of lovastatin-treated cells compared to cells incubated with medium only and was calculated as follows: relative viability=[(Ae−Ab)/(Ac−Ab)]*100, where Ab is the background absorbance, Ae is experimental absorbance of the lysed cells and Ac is the absorbance of untreated cells. The viability was expressed as percentage survival in comparison to non-cholesterol depleted cells (control).
RAJI-CD20high cells were incubated with diluents (control) or a concentration range of either Fillipin III for 30 minutes or Berberine chloride for 24 hours. […] The cytotoxic effects were measured in a MTT assay. […] After overnight incubation at 37° C. the absorbance of the samples was measured at 550-525 nm using an Elisa reader (EL808x, Biotek instruments, Highland park, Vt., USA). […]

human CD20 [2] = molecular target: T1, human CD20; experiment: flow cytometry, FITC-conjugated antibody on freshly isolated B cells of five patients after 80 mg atorvastatin
Text: Informed consent was provided according to the Declaration of Helsinki.

[3] = test system: cell surface proteins on RAJI cells; experiment: FACS binding of mAbs to cell surface proteins on RAJI cells; format: cell-based, human; conditions: increasing concentrations of MβCD
Method: B cells (either non-treated cells, cholesterol-depleted cells via MβCD or lovastatin, or cholesterol-reconstituted cells) were characterized for quantitative surface expression of the B cell markers CD19, CD20, and CD21, the T-cell marker CD3, complement regulatory proteins CD55 and CD59, and HLA-DR and CD81 by direct immunofluorescence. […] After washing twice with FACS buffer (PBS, 0.1% Bovine Serum Albumine, 0.02% Sodium Azide), the cells were analyzed on a flow cytometer.

human CD20 [4] = molecular target: T1, human CD20; experiment: cell-based or functional assay

Molecule	binding of B9E9 to cells treated with cholesterol-modulating drug [1]	rituximab-mediated CDC after pre-incubation (RAJI-CD20high cells)	average decrease of the CD20/CD21 MFI ratio, day 3 against day 0 (so in the source) (human CD20 [2]) [%]	other results
COc1ccc2cc3[n+](cc2c1OC)CCc1cc2c(cc1-3)OCO2 [Berberine chloride]	impaired binding	significantly abrogated		
CD20 mAb B1 (GlaxoSmithKline) (antibody)			96	
Fillipin III	not observed	remained sensitive		
methyl-beta-cyclodextrin [MβCD]				binding of mAbs against CD19, CD20, CD55, CD59, HLA-DR and CD81 [3]: negatively correlated; mAb binding to CD21 [3]: not affected
rituximab (antibody, V domains shown) VH: QVQLQQPGAELVKPGASVKMSCKASGYTFTSYNMHWVKQTPGRGLEWIGAIYPGNGDTSYNQKFKGKATLTADKSSSTAYMQLSSLTSEDSAVYYCARSTYYGGDWYFNVWGAGTTVTVSA VL: QIVLSQSPAILSASPGEKVTMTCRASSSVSYIHWFQQKPGSSPKPWIYATSNLASGVPVRFSGSGSGTSYSLTISRVEAEDAATYYCQQWTSNPPTFGGGTKLEIK				EC50 of rituximab-mediated ADCC, 51Cr release, lovastatin-treated RAJI cells, PBMC effector cells (human CD20 [4]): 0.082 µg/mL; EC50 of rituximab-mediated ADCC, 51Cr release, non-treated RAJI cells, PBMC effector cells (human CD20 [4]): 0.024 µg/mL
CD20 mAb 11B8 (antibody, V domains shown) VH: EVQLVQSGGGLVHPGGSLRLSCTGSGFTFSYHAMHWVRQAPGKGLEWVSIIGTGGVTYYADSVKGRFTISRDNVKNSLYLQMNSLRAEDMAVYYCARDYYGAGSFYDGLYGMDVWGQGTTVTVSS VL: EIVLTQSPATLSLSPGERATLSCRASQSVSSYLAWYQQKPGQAPRLLIYDASNRATGIPARFSGSGSGTDFTLTISSLEPEDFAVYYCQQRSDWPLTFGGGTKVEIK			84	
